# pEC50: −log10 of the molar value. Structures can show the parent of a compound that is named as a salt.
# Tested on: γ-secretase
# Experiment: Cellular γ-secretase assay (inhibition of Aβ42 secretion)
# Format: cell-based
# Settings: human neuroglioma H4 cells overexpressing human APP, 22 hrs incubation
# Procedure: Human neuroglioma H4 cells overexpressing human APP were plated at 30,000 cells/well/[…] in 96-well plates in IMDM media containing 10% FCS, […] Hygromycin B and incubated for 2 h at 37° C., 5% CO2 prior to adding test compounds.
# Compounds for testing were dissolved in 100% Me2SO yielding in a 10 mM stock solution. Typically […] of these solutions were further diluted in 1000 μl of IMDM media (w/o FCS). Subsequent 1:1 dilutions gave a ten point dose response curve. 100 μl of each dilution was added to the cells in 96-well plates. Appropriate controls using vehicle only and reference compound were applied to this assay. The final concentration of Me2S0 was 0.4%.
# After incubation for 22 hrs at 37° C., 5% CO2, 50 μl supernatant was transferred into round-bottom 96-well polypropylene plates for detection of Aβ42. 50 μl assay buffer (50 mM Tris/Cl, pH 7.4, 60 mM NaCl, 0.5% BSA, 1% TWEEN 20) was added to the wells followed by the addition of 100 μl of detection antibody (ruthenylated BAP15 0.0625 μg/ml in assay buffer). 50 μl of a premix of capture antibody (biotinylated 6E10 antibody, 1 μg/ml) and Steptavidin-coated magnetic beads (Dynal M-280, 0.125 mg/ml) were preincubated for 1 hr at room temperature before adding the assay plates. Assay plates were incubated on a shaker for 3 hrs at room temperature and finally read in the Bioveris M8 Analyser according to the manufacturer's instructions (Bioveris).
# IC50 values for inhibition of Aβ42 secretion were calculated by nonlinear regression fit analysis using XLfit 4.0 software (IDBS).
row,SMILES,pEC50
1,"COc1cc(Nc2nc3nc(C(F)(F)F)cc(-c4cnccn4)n3n2)ccc1-n1cnc(C)c1 [Example 41, [3-Methoxy-4-(4-methyl-imidazol-1-yl)-phenyl]-(7-pyrazin-2-yl-5-trifluoromethyl-[1,2,4]triazolo[1,5-a]pyrimidin-2-yl)-amine]",5.37
2,"COc1cc(Nc2nc3c(-c4cccc(CNS(C)(=O)=O)c4)cc(C)cn3n2)ccc1-n1cnc(C)c1 [Example 98, N-(3-(2-(3-Methoxy-4-(4-methyl-1H-imidazol-1-yl)phenylamino)-6-methyl-[1,2,4]triazolo[1,5-a]pyridin-8-yl)benzyl)methanesulfonamide]",6.41
3,"COc1cc(Nc2nc3c(-c4ccc(F)cc4Cl)ccc(C(C)(C)O)n3n2)ccc1-n1cnc(C)c1 [Example 121, 2-{8-(2-Chloro-4-fluoro-phenyl)-2-[3-methoxy-4-(4-methyl-imidazol-1-yl)-phenylamino]-[1,2,4]triazolo[1,5-a]pyridin-5-yl}-propan-2-ol]",7.12
4,"COc1ccc(-c2cc(C)cn3nc(Nc4ccc(-n5cnc(C)c5)c(OC)c4)nc23)c(OC)c1 [Example 84, 8-(2,4-Dimethoxyphenyl)-N-(3-methoxy-4-(4-methyl-1H-imidazol-1-yl)phenyl)-6-methyl-[1,2,4]triazolo[1,5-a]pyridin-2-amine]",6.49
5,"Cc1cn(-c2ccc(Nc3nc4c(-c5ccc(F)cc5Cl)cccn4n3)cc2C#N)cn1 [Example 113, 5-(8-(2-chloro-4-fluorophenyl)-[1,2,4]triazolo[1,5-a]pyridin-2-ylamino)-2-(4-methyl-1H-imidazol-1-yl)benzonitrile]",7.09
6,"COc1cc(Nc2nc3c(-c4ccc(F)c(C(F)(F)F)c4)cc(C)cn3n2)ccc1-n1cnc(C)c1 [Example 75, 8-(4-Fluoro-3-(trifluoromethyl)phenyl)-N-(3-methoxy-4-(4-methyl-1H-imidazol-1-yl)phenyl)-6-methyl-[1,2,4]triazolo[1,5-a]pyridin-2-amine]",7.72
7,"COc1cc(Nc2nc3c(-c4ccc(F)cc4)cccn3n2)ccc1-c1ccnc(C)c1 [Example 53, 8-(4-Fluorophenyl)-N-(3-methoxy-4-(2-methylpyridin-4-yl)phenyl)-[1,2,4]triazolo[1,5-a]pyridin-2-amine]",6.92
8,"COc1cc(Nc2nc3c(-c4ccc(F)c(Cl)c4)cc(C4CC4)cn3n2)ccc1-n1cnc(C)c1 [Example 147, [8-(3-Chloro-4-fluoro-phenyl)-6-cyclopropyl-[1,2,4]triazolo[1,5-a]pyridin-2-yl]-[3-methoxy-4-(4-methyl-imidazol-1-yl)-phenyl]-amine]",7.48
9,"COc1cc(Nc2nc3c(C4=CCN(CC#N)CC4)cc(C)cn3n2)ccc1-n1cnc(C)c1 [Example 108, 2-(4-(2-(3-Methoxy-4-(4-methyl-1H-imidazol-1-yl)phenylamino)-6-methyl-[1,2,4]triazolo[1,5-a]pyridin-8-yl)-5,6-dihydropyridin-1(2H)-yl)acetonitrile]",6.31
10,"CCCc1cccc2nc(Nc3ccc(-n4cnc(C)c4)c(OC)c3)nn12 [Example 16, [3-Methoxy-4-(4-methyl-imidazol-1-yl)-phenyl]-(5-propyl-[1,2,4]triazolo[1,5-a]pyridin-2-yl)-amine]",6.71
11,"COc1cc(Nc2nc3cccc(-c4ccccc4)n3n2)ccc1-n1cnc(C)c1 [Example 6, [3-Methoxy-4-(4-methyl-imidazol-1-yl)-phenyl]-(5-phenyl-[1,2,4]triazolo[1,5-a]pyridin-2-yl)-amine]",6.92
12,"COc1cc(Nc2nc3cccc(N4CCCCC4)n3n2)ccc1-n1cnc(C)c1 [Example 33, [3-Methoxy-4-(4-methyl-imidazol-1-yl)-phenyl]-(5-piperidin-1-yl-[1,2,4]triazolo[1,5-a]pyridin-2-yl)-amine]",6.25
13,"COc1cc(Nc2nc3c(-c4ccc5ncn(C)c5c4)cc(C)cn3n2)ccc1-n1cnc(C)c1 [Example 88, N-(3-Methoxy-4-(4-methyl-1H-imidazol-1-yl)phenyl)-6-methyl-8-(1-methyl-1H-benzo[d]imidazol-6-yl)-[1,2,4]triazolo[1,5-a]pyridin-2-amine]",6.73
14,"COc1cc(Nc2nc3c(C)cc(Cl)cn3n2)ccc1-n1cnc(C)c1 [Example 49, (6-Chloro-8-methyl-[1,2,4]triazolo[1,5-a]pyridin-2-yl)-[3-methoxy-4-(4-methyl-imidazol-1-yl)-phenyl]-amine]",5.87
15,"COc1cc(Nc2nc3c(Oc4ccccc4)cccn3n2)ccc1-n1cnc(C)c1 [Example 136, N-(3-methoxy-4-(4-methyl-1H-imidazol-1-yl)phenyl)-8-phenoxy-[1,2,4]triazolo[1,5-a]pyridin-2-amine]",6.82
16,"COc1cc(Nc2nc3c(-c4ccc(F)cc4Cl)cccn3n2)ccc1-c1cc(C)ncn1 [Example 114, 8-(2-chloro-4-fluorophenyl)-N-(3-methoxy-4-(6-methylpyrimidin-4-yl)phenyl)-[1,2,4]triazolo[1,5-a]pyridin-2-amine]",6.62
17,"COc1cc(Nc2nc3ccc(C)c(C)n3n2)ccc1-n1cnc(C)c1 [Example 50, (5,6-Dimethyl-[1,2,4]triazolo[1,5-a]pyridin-2-yl)-[3-methoxy-4-(4-methyl-imidazol-1-yl)-phenyl]-amine]",6.40
18,"COc1cc(Nc2nc3nccc(-c4ccc(F)cc4)n3n2)ccc1-n1cnc(C)c1 [Example 71, [7-(4-Fluoro-phenyl)-[1,2,4]triazolo[1,5-a]pyrimidin-2-yl]-[3-methoxy-4-(4-methyl-imidazol-1-yl)-phenyl]-amine]",6.57
19,"COc1cc(Nc2nc3nccc(-c4ccc(F)c(Cl)c4)n3n2)ccc1-n1cnc(C)c1 [Example 73, 7-(3-Chloro-4-fluorophenyl)-N-(3-methoxy-4-(4-methyl-1H-imidazol-1-yl)phenyl)-[1,2,4]triazolo[1,5-a]pyrimidin-2-amine hydrochloride]",6.44
20,"COc1cc(Nc2nc3c(-c4ccc(F)c(Cl)c4)cc(C)cn3n2)ccc1-n1cnc(C)c1 [Example 62, [8-(3-Chloro-4-fluoro-phenyl)-6-methyl-[1,2,4]triazolo[1,5-a]pyridin-2-yl]-[3-methoxy-4-(4-methyl-imidazol-1-yl)-phenyl]-amine]",8.00
21,"COc1cc(Nc2nc3nccc(-c4ccc(C#N)cc4)n3n2)ccc1-n1cnc(C)c1 [Example 35, 4-{2-[3-Methoxy-4-(4-methyl-imidazol-1-yl)-phenylamino]-[1,2,4]triazolo[1,5-a]pyrimidin-7-yl}-benzonitrile]",5.23
22,"COc1cc(Nc2nc3cccc(N4CCCCCC4)n3n2)ccc1-n1cnc(C)c1 [Example 31, (5-Azepan-1-yl-[1,2,4]triazolo[1,5-a]pyridin-2-yl)-[3-methoxy-4-(4-methyl-imidazol-1-yl)-phenyl]-amine]",6.23
23,"COc1cc(Nc2nc3c(-c4ccc(F)c(F)c4)ccc(C(C)(C)O)n3n2)ccc1-n1cnc(C)c1 [Example 145, 2-{8-(3,4-Difluoro-phenyl)-2-[3-methoxy-4-(4-methyl-imidazol-1-yl)-phenylamino]-[1,2,4]triazolo[1,5-a]pyridin-5-yl}-propan-2-ol]",7.57
24,"COc1cc(Nc2nc3c(-c4ccc(F)c(F)c4)cccn3n2)ccc1-n1cnc(C)c1 [Example 126, [8-(3,4-Difluoro-phenyl)-[1,2,4]triazolo[1,5-a]pyridin-2-yl]-[3-methoxy-4-(4-methyl-imidazol-1-yl)-phenyl]-amine]",7.49
25,"COc1cc(Nc2nc3nccc(-c4ccc(OC(F)(F)F)cc4)n3n2)ccc1-n1cnc(C)c1 [Example 23, [3-Methoxy-4-(4-methyl-imidazol-1-yl)-phenyl]-[7-(4-trifluoromethoxy-phenyl)-[1,2,4]triazolo[1,5-a]pyrimidin-2-yl]-amine acetate]",6.72
26,"COc1cc(Nc2nc3c(-c4ccc(F)c(Cl)c4)ccc(C(C)(C)O)n3n2)ccc1-n1cnc(C)c1 [Example 123, 2-{8-(3-Chloro-4-fluoro-phenyl)-2-[3-methoxy-4-(4-methyl-imidazol-1-yl)-phenylamino]-[1,2,4]triazolo[1,5-a]pyridin-5-yl}-propan-2-ol]",7.54
27,"COc1cc(Nc2nc3c(-c4ccc(F)cc4)ccc(C(C)(C)O)n3n2)ccc1-n1cnc(C)c1 [Example 119, 2-{8-(4-Fluoro-phenyl)-2-[3-methoxy-4-(4-methyl-imidazol-1-yl)-phenylamino]-[1,2,4]triazolo[1,5-a]pyridin-5-yl}-propan-2-ol]",7.51
28,"COc1cc(Nc2nc3c(OCc4ccccc4)cccn3n2)ccc1-n1cnc(C)c1 [Example 43, (8-Benzyloxy-[1,2,4]triazolo[1,5-a]pyridin-2-yl)-[3-methoxy-4-(4-methyl-imidazol-1-yl)-phenyl]-amine]",6.17
29,"COc1cc(Nc2nc3c(-c4ccc(F)cc4Cl)cc(C4CC4)cn3n2)ccc1-n1cnc(C)c1 [Example 148, [8-(2-Chloro-4-fluoro-phenyl)-6-cyclopropyl-[1,2,4]triazolo[1,5-a]pyridin-2-yl]-[3-methoxy-4-(4-methyl-imidazol-1-yl)-phenyl]-amine]",7.05

# — patent US20110190269A1, “GAMMA SECRETASE MODULATORS” (priority 2010, published 2011)
